Test results: US12344643B2, “Compositions and methods for inhibition of FOXP3” (The University of Chicago, priority 2016, dated 2025)
Ends that are not written are not given here.

How the values were obtained:
FOXP3-DNA binding = assay: EMSA with FOXP3 reticulocyte lysate (IVTT) and IRDye700 DNA probe, unstapled peptides; assay type: biochemical; settings: peptides 50-200 μM, A′A1A2 probe
Procedure: FIG. 5A-C. Unstapled FOXP3 peptides are able to alter FOXP3-DNA binding at high concentrations. Preparation of FOXP3 proteins through In Vitro Transcription and Translation (IVTT) reticulocyte lysate: T7 DNA vectors (1 μg/25 μL) were incubated at 30° C. for 1.5 hr in reticulocyte lysate with T7 polymerase, amino acids and RNAsin per the manufacturer's protocol (TnT Coupled Reticulocyte Lysate System, Promega). IRDye700 labeled probe containing consensus sequence (A′A1A2; a DNA sequence previously published to bind FOXP3) for FOXP3 was incubated at room temperature for 15 mins with 2 μL FOXP3 reticulocyte lysate, in the presence of peptides (50-200 μM) using the Odyssey Infrared EMSA kit per manufacturer's protocol (Li-Cor). Reactions were then separated by electrophoresis on a 10% TBE gel and imaged using an Odyssey Imager (Li-Cor).

[1] = system: regulatory T cells (Tregs); assay: In vitro Treg suppression assay (Tcon proliferation, flow cytometry); assay type: cell-based, mouse (C57BL/6 FOXP3IRES-GFP)
Tregs [2] = assay: Flow cytometry of protein expression in treated Tregs; assay type: cell-based, mouse (C57BL/6 FOXP3IRES-GFP); settings: dose titration
Procedure: (§1) FIG. 12A-B. SAH-FOXP3DD peptides are able to alter cellular expression (protein and mRNA) of FOXP3 target genes. Conventional T cells (CD4+ CD25−) and regulatory T cells (CD25+ GFP+) were isolated from CD4+ cells enriched from spleen and draining lymph nodes of FOXP3-IRES-GFP. Tregs were treated at 1000 cells per μL with peptides in OptiMem for 2 hours before being quenched with completed advanced DMEM and then stimulated with CD3/CD28 beads. Gene expression was determined using qRT-PCR 4 hours after stimulation. Membrane (live cell) or internal (fixed cell) expression of proteins was determined using flow cytometry 16 hrs after stimulation.
(§2) Tregs and Tcons were stimulated from C57BL/6 FOXP3IRES-GFP with IL-2 and CD3/CD28 microbeads for seven days and treated them with a dose titration of SAH-FOXP3DD10, or unstapled control, and measured membrane expression of CD127 (IL7Ra). Tregs and Tcons normally downregulate CD127 mRNA expression following seven days of stimulation.

Tregs [3] = assay: Quantitative PCR of mRNA in treated Tregs; assay type: cell-based, mouse (C57BL/6 FOXP3IRES-GFP); settings: naïve Tregs with IL-2 and CD3/CD28 microbeads
Procedure: as §1, §2

DNA probe = assay: EMSA control, peptide alone with DNA probe (non-specific binding); settings: 50 μM peptide
Procedure: FIG. 9A-C. Electrophoretic mobility shift assays (EMSA). (A) SAHs block FOXP3 binding to cognate DNA; a comparison of stapled and unstapled peptides. EMSA with FOXP3ΔN incubated with increasing concentrations of different SAH-FOXP3 are shown. Labeled probe containing consensus sequence (A′GT25) for FOXP3 was incubated at room temperature for 15 mins with recombinant FOXP3ΔN and increasing concentrations of SAH peptide [3 μM to 25 μM]. The last lane in each set is 25 μM of peptide alone with DNA probe. […] IRDye700 labeled probe containing consensus sequence for NFAT was incubated at room temperature for 15 mins with 100 pmole recombinant NFAT-DBD and peptide or DMSO using the Odyssey Infrared EMSA kit per manufacturer's protocol (Li-Cor). Reactions were then separated by electrophoresis on a 10% TBE gel and imaged using an Odyssey Imager (Li-Cor).
To exclude non-specific binding to the negatively charged DNA probe, a liability of using charged peptides in EMSAs, SAH-FOXP3DDs were incubated with each probe at up to twice the highest concentration used. […] Next, SAH-FOXP3DDs were incubated with recombinant NFAT (NFAT DBDW400-W680) and the Il-2 reporter oligonucleotide ARRE2 element as a further test of specificity. SAH-FOXP3DDs were unable to inhibit NFAT:DNA binding, further validating on-target specificity of the peptides.

FOXP3:NFAT1 = assay: IL-2 promoter ARRE2 luciferase reporter, FOXP3 repression of NFAT1:AP1 transcription; assay type: cell-based, human; settings: HEK cells
Procedure: FIG. 2A-E. Design, biochemical characterization, and functional testing of SAH-FOXP3NFATs. (A) Design strategy for SAHs targeting the FOXP3:NFAT1 dimerization interface. (B) CD showing that i(i+4) and i(i+7) stapled SAH-FOXP3NFATs and their point mutant controls are helical in solution. […] (C&D) Dose dependent inhibition of FOXP3-mediated NFAT repression with 2.5 ng (D) and 10 ng (E) FOXP3 DNA. Point mutant controls have no effect thus confirming specificity of action.
Experiments were conducted during development of embodiments herein to design stabilized α-helices of the FOXP3:NFAT1 interface (SAH-FOXP3NFAT). Using a similar approach as above, stapled peptides based on a FOXP3 α-helix, which is responsible for NFAT1 binding (FIG. 2A), were designed. Non-natural amino acids were inserted in either the i,i+4 (SAHFOXP3NFAT(i,i+4)) or i,i+7(SAHFOXP3NFAT(i,i+7)) positions. Hydrocarbon stapling of the FOXP3NFAT peptides and point mutants similarly stabilizes their helicity (FIG. 2B). The peptides were tested for inhibition of FOXP3:NFAT1 binding. Co-expression of increasing amounts of FOXP3 DNA with constitutively active NFAT1 dose dependently represses NFAT1: AP1 transcriptional activity at an IL-2 promoter ARRE2 luciferase reporter element in transfected human embryonic kidney (HEK) cells (FIG. 2C). […] Confirming specificity of action, neither point mutant control SAH had any effect (FIG. 2E). […] Possibilities include differences in cellular penetrance, binding efficiency, or intracellular trafficking between the two SAHs.

[4] = target: T1, recombinant FOXP3 leucine zipper coiled-coiled (LZCC) domain (Mus musculus, UniProt Q99JB6); assay: Fluorescence polarization assay, FITC-peptide binding to LZCC; settings: 50 nM FITC-peptide, 1×PBS pH 8
T1 construct: the LZCC portion of FOXP3 (FOXP3 S189-K276); made in house
T1 sequence (Q99JB6 189-276): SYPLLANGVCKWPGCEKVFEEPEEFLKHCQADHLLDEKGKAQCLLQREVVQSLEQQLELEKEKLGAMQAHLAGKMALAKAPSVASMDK
Procedure: FIG. 7A-D. Fluorescence polarization assay to determine SAH-FOXP3 binding to recombinant FOXP3 leucine zipper coiled-coiled (LZCC) domain. (A) Serially diluted recombinant LZCC was incubated with 50 nM FITC-peptide in 1×PBS pH 8 for 5-10 mins and then fluorescent polarization was measured using a SpectraMax spectrometer. […] (B—C) Serially diluted recombinant LZCC (A) or FOXP3 ΔN (B) was incubated with 50 nM FITC-peptide in 1×PBS pH 8 for 5-10 mins followed by fluorescent polarization measurement using a SpectraMax spectrometer. (D) Shift of composite binding curves indicate increased affinity for the leucine zipper coiled-coiled (LZCC) domain and FOXP3ΔN.
A library of hydrocarbon stapled peptides were synthesized representing these templates (SAH-FOXP3DDs) that incorporated three different hydrocarbon staple positions along the solvent-exposed face so as to avoid disruption of critical contact points between ‘a’ and ‘d’ residues of the coiled-coil. Non-natural amino acids were inserted at positions i,i+7 so that the hydrocarbon staples face away from the dimerization interface (FIG. 1A). […] Both native and stapled FOXP3DD peptides were α-helical in solution at a wide range of temperatures (20-50° C.) (FIG. 1B). To achieve solubility of the unstapled constructs for CD evaluation, 20% acetonitrile:water solution was used. […]

[5] = target: T2, recombinant LZCC protein (dimerized FOXP3) (Mus musculus, UniProt Q99JB6); assay: Chemical crosslinking (BS3 or DSS) of recombinant LZCC with SAH-FOXP3 peptides; assay type: biochemical; settings: 2 hours room temperature, 1 mM BS3 or DSS
T2 construct: the LZCC portion of FOXP3 (FOXP3 S189-K276); made in house
T2 sequence (Q99JB6 189-276): T1 sequence (Q99JB6 189-276)
Procedure: FIG. 8A-B. Chemical Crosslinking. SAH-FOXP3 peptides incubated with recombinant LZCC protein for 2 hours at room temperature in 1×PBS. 1 mM of the chemical crosslinker BS3 or DSS was added to each tube for 30 mins at room temperature. Samples were denatured and then separated by electrophoresis on a NuPage SDS 10/a Bis-Tris gel following the manufacturer's protocol (Invitrogen). Protein was imaged after staining the gel with coomassie on the Odyssey Imager. […] In some cases, SAH peptide crosslinks with monomeric FOXP3 alone

## LLDEKGRAQCLLQREMVQSLEQQLVLEKEK (LLDEKGRAQCLLQREMVQSLEQQLVLEKEK-NH2) [223-252, free N-term/-Am; hFOXP3 (223-252); unstapled; B4 has the same range]
FOXP3-DNA binding
  dissociation of FOXP3 from DNA (EMSA): dissociate FOXP3 from DNA

## RAQCLLQREMVQSLE8QLVLEKXKLSAMQAH [SAH-FOXP3DD10, Ac-/-Am; hFOXP3 (229-259); staple (Q244, E251)C]
[1]; in vitro expanded Tregs
  degree of Treg inhibition: lower, but still present
[1]; naïve Tregs pretreated for 2 hours
  ability of treated Tregs to inhibit Tcon proliferation: unable to inhibit the proliferation
Tregs [2]; Tregs stimulated seven days
  expression of CD44: dose dependent decrease
  expression of CD69: dose dependent decrease
Tregs [2]; Tregs stimulated with IL-2 and CD3/CD28 microbeads for seven days
  membrane expression of CD127 (IL7Ra): dose dependent increase
Tregs [3]
  FOXP3 mRNA expression: correlative increase
  IL-2 mRNA expression: correlative increase
DNA probe
  binding of peptide to DNA probe: minimal binding

## KGRAQCLLQREMVQSLE8QLVLEKXKLSAMQAH [SAH-FOXP3DD4, Ac-/-Am; hFOXP3 (227-259); staple (Q244, E251)C]
DNA probe
  binding of peptide to DNA probe: minimal binding

## QRTXNEIYHWXTRNFAFF [SAH-FOXP3NFAT(i,i+7), β-Ala/Ac; i,i+7 stapled FOXP3/NFAT peptide]
FOXP3:NFAT1; 2.5 ng FOXP3 DNA (low dose)
  inhibition of FOXP3-mediated repression of NFAT1:AP1 luciferase activity: inhibited this FOXP3-mediated repression
FOXP3:NFAT1; 2.5 ng FOXP3 DNA (low dose), listed as FOXP3NFAT(I,i+7)
  inhibition of FOXP3-mediated repression of NFAT1:AP1 luciferase activity: dose-responsively inhibited
FOXP3:NFAT1; 10 ng FOXP3 DNA (excess)
  inhibition of FOXP3-mediated repression of NFAT1:AP1 luciferase activity: inhibited this FOXP3-mediated repression
FOXP3:NFAT1; 10 ng FOXP3 DNA (excess), listed as FOXP3NFAT(I,i+7)
  inhibition of FOXP3-mediated repression of NFAT1:AP1 luciferase activity: dose-responsively inhibited

## SGSGSRAQCLLQREMVQSLEQQLVLEKEK (Ac-SGSGSRAQCLLQREMVQSLEQQLVLEKEK-NH2) [B2V3, Ac-/-Am; SGSGS hFOXP3 (229-252); unstapled native peptide]
[4]
  binding to recombinant LZCC, in words: much lower affinity

## F8KHCQADXLLDEKGRAQCLLQREMVQSLEQQLVLEKEKL [SAH7, Ac-/-Am; hFOXP3 (214-253); staple (1215, H222)Z]
[5]
  amount of dimerized FOXP3 protein after crosslinking: modest decrease

## SGSRAQCLLQREMVQSLEQQLVLEKEK (Ac-SGSRAQCLLQREMVQSLEQQLVLEKEK-NH2) [B2V2, Ac-/-Am; SGS hFOXP3 (229-252); unstapled native peptide]
[4]
  binding to recombinant LZCC, in words: much lower affinity

## QRTXNEIXHWFTRNFAFF [SAH-FOXP3NFAT(i,i+4), β-Ala/Ac; i,i+4 stapled FOXP3/NFAT peptide]
FOXP3:NFAT1; 2.5 ng FOXP3 DNA (low dose)
  inhibition of FOXP3-mediated repression of NFAT1:AP1 luciferase activity: inhibited this FOXP3-mediated repression
FOXP3:NFAT1; 2.5 ng FOXP3 DNA (low dose), listed as FOXP3NFAT(i,i+4)
  inhibition of FOXP3-mediated repression of NFAT1:AP1 luciferase activity: fully inhibited
FOXP3:NFAT1; 10 ng FOXP3 DNA (excess)
  inhibition of FOXP3-mediated repression of NFAT1:AP1 luciferase activity: inhibited this FOXP3-mediated repression
FOXP3:NFAT1; 10 ng FOXP3 DNA (excess), listed as FOXP3NFAT(i,i+4)
  inhibition of FOXP3-mediated repression of NFAT1:AP1 luciferase activity: less able to inhibit

## LLDEKGRAQCL8QREMVQXLEQQLVLEKEK [SAH9, Ac-/-Am; hFOXP3 (223-252); staple (L234, S241)B]
[5]
  amount of dimerized FOXP3 protein after crosslinking: modest decrease

## RAQCLLQREMVQSLEQQLVLEKEKLSAMQAH (Ac-RAQCLLQREMVQSLEQQLVLEKEKLSAMQAH-NH2) [229-259, Ac-/-Am; hFOXP3 (229-259); unstapled]
FOXP3-DNA binding
  dissociation of FOXP3 from DNA (EMSA): dissociate FOXP3 from DNA

## HLLDEKGRAQCLLQREMVQSLE8QLVLEKXKLSAMQAHLAG [SAH3, Ac-/-Am; hFOXP3 (222-262); staple (Q244, E251)C]
DNA probe
  binding of peptide to DNA probe: minimal binding
